This is an account of results in patent US20090093468A1, “Peptide Deformylase Inhibitors” (priority 2004, published 2009).

The target of assay [1] is T1, bacterial PDF (peptide deformylase), enzyme from S. aureus (Staphylococcus aureus, UniProt P68826).
T1 sequence (P68826 1-183): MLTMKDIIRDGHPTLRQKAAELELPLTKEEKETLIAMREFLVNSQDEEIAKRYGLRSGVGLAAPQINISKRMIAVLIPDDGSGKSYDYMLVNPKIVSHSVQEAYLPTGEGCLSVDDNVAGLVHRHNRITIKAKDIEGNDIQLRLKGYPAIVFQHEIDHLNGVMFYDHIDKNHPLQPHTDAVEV
Description: Bacterial peptide deformylase (PDF) assay, enzyme from S. aureus. Format: biochemical. Conditions: PDF enzyme from S. aureus; substrate f-Met-Ala; TNBS readout at 420 nm; read-out: IC50 (enzyme from S. aureus). The method, then:
(§1) The IC50 value of a compound of the invention as a bacterial PDF inhibitor was determined using the following assay.
(§2) Assay buffer (pH 7.2): 0.1 M MOPS pH was adjusted to 7.2 with NaOH, containing 0.25 M NaCl, 100 microgram/mL catalase and 1 mg/mL BSA.
(§3) Enzyme mix: 670 ng/mL of enzyme (to finally have 50 ng of enzyme per well).
(§4) Substrate: 10 mM f-Met-Ala was made up from 200 mM f-Met-Ala in methanol with assay buffer.
(§5) TNBS solution: Freshly dilute 1 M TNBS stock solution to 1:10 with water.
(§6) Buffer C: 0.5 M borate buffer adjusted to pH 9.5 with NaOH.
(§7) Buffer D: 0.2 ml of freshly prepared 0.5 M Na2SO3 was mixed with 9.8 mL of 0.5M NaH2PO4.
(§8) Inhibitor solution: 2 mM Sodium 4-(hydroxymercurio) benzoate in assay buffer.
(§9) The assay was performed in a 96 Microtiter plate containing test compound. To each well containing test compound mix was added 75 microliter of enzyme mix from E. coli followed, by the addition of 25 microliter of substrate mix. The resulting mix was incubated for 30 minutes at room temperature with shaking. TNBS solution (50 microliter/well) was added and the resulting mixture was incubated for 15 minutes under shaking. Buffer C was then added (20 microliter/well). After incubating at room temperature for 15 minutes under shaking, buffer D was added (50 microliter/well). The optical […] was then measured at 420 nm, thereby determining the IC50 value.
The assay was repeated using enzyme mix from S. aureus.

The target in assay [2] is bacterial PDF (peptide deformylase), enzyme from E. coli (Escherichia coli, UniProt P0A6K3). The experiment in a line: Bacterial peptide deformylase (PDF) assay, enzyme from E. coli. The class given is biochemical. The method, then: as §1, §2, §3, §4, §5, §6, §7, §8, §9
bacterial PDF (peptide deformylase), enzyme from E. coli, sequence (P0A6K3 whole entry): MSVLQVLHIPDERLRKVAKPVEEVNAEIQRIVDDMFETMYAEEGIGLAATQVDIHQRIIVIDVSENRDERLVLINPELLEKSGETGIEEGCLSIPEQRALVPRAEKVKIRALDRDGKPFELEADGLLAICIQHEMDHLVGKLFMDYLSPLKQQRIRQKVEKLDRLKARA

Consider `O=C(CC1CNc2ccccc2S1)NO` (stereo not drawn) [Example 1, 2-(3,4-Dihydro-2H-benzo[1,4]thiazin-2-yl)-N-hydroxy-acetamide], for which the IC50 in assay [1] is 37.6 µM; in assay [2], 56.7 µM.
Consider `O=C(CC1CNc2ccccc2S1(=O)=O)NO` (stereo not drawn) [Example 2, 2-(1,1-Dioxo-1,2,3,4-tetrahydro-1λ^6-benzo[1,4]thiazin-2-yl)-N-hydroxy-acetamide], for which the figures for the IC50 in assay [1] and in assay [2] were 1.5 µM and 3.4 µM, respectively.
Consider `CCN1CC(CC(=O)NO)Sc2ccccc21` (stereo not drawn) [Example 3, 2-(4-Ethyl-3,4-dihydro-2H-benzo[1,4]thiazin-2-yl)-N-hydroxy-acetamide], for which the IC50 was 5.6 µM in assay [1] and 2.6 µM in assay [2].
For `CCN1CC(CC(=O)NO)S(=O)(=O)c2ccccc21` (stereo not drawn) [Example 4, 2-(4-Ethyl-1,1-dioxo-1,2,3,4-tetrahydro-1λ^6-benzo[1,4]thiazin-2-yl)-N-hydroxy-acetamide], the IC50 was 2 µM in assay [1] and 1.4 µM in assay [2].
`CCCN1CC(CC(=O)NO)Sc2ccccc21` (stereo not drawn) [Example 5, N-Hydroxy-2-(4-propyl-3,4-dihydro-2H-benzo[1,4]thiazin-2-yl)-acetamide]: the half-maximal inhibitory concentration (IC50) was found to be 8.5 µM in assay [1] and 7 µM in assay [2].
As to `CCCN1CC(CC(=O)NO)S(=O)(=O)c2ccccc21` (stereo not drawn) [Example 6, 2-(1,1-Dioxo-4-propyl-1,2,3,4-tetrahydro-1λ^6-benzo[1,4]thiazin-2-yl)-N-hydroxy-acetamide], the 50% inhibitory concentration (IC50) in assay [1] was 1.9 µM; in assay [2], 1.6 µM.
For `CCCCN1CC(CC(=O)NO)Sc2ccccc21` (stereo not drawn) [Example 7, 2-(4-Butyl-3,4-dihydro-2H-benzo[1,4]thiazin-2-yl)-N-hydroxy-acetamide] the same measures were 35.5 µM and 22 µM.
Turning to `CCCCN1CC(CC(=O)NO)S(=O)(=O)c2ccccc21` (stereo not drawn) [Example 8, 2-(4-Butyl-1,1-dioxo-1,2,3,4-tetrahydro-1λ^6-benzo[1,4]thiazin-2-yl)-N-hydroxy-acetamide], the half-maximal inhibitory concentration (IC50) is 8.1 µM in assay [1] and 8.8 µM in assay [2].
Consider `O=C(CC1CN(Cc2ccccc2)c2ccccc2S1(=O)=O)NO` (stereo not drawn) [Example 9, 2-(4-Benzyl-1,1-dioxo-1,2,3,4-tetrahydro-1λ^6-benzo[1,4]thiazin-2-yl)-N-hydroxy-acetamide], for which the IC50 in assay [1] amounted to 21.4 µM; in assay [2], 21.2 µM.
Regarding `O=C(CC1CN(Cc2cccc(F)c2)c2ccccc2S1(=O)=O)NO` (stereo not drawn) [Example 10, 2-[4-(3-Fluoro-benzyl)-1,1-dioxo-1,2,3,4-tetrahydro-1λ^6-benzo[1,4]thiazin-2-yl]-N-hydroxy-acetamide], the 50% inhibitory concentration (IC50) in assay [1] came out at 28.4 µM; in assay [2] it was 27.7 µM.
As to `CCN1CC(CC(=O)NO)S(=O)(=O)c2ccc(C(=O)NCc3ccccc3)cc21` (stereo not drawn) [Example 11, 4-Ethyl-2-hydroxycarbamoylmethyl-1,1-dioxo-1,2,3,4-tetrahydro-1λ^6-benzo[1,4]thiazine-6-carboxylic acid benzylamide], the IC50 in assay [1] worked out at 8.9 µM; in assay [2], 17.6 µM.
As to `CCN1CC(CC(=O)NO)S(=O)(=O)c2ccc(C(=O)NCc3ccccc3F)cc21` (stereo not drawn) [Example 12, 4-Ethyl-2-hydroxycarbamoylmethyl-1,1-dioxo-1,2,3,4-tetrahydro-1λ^6-benzo[1,4]thiazine-6-carboxylic acid 2-fluoro-benzylamide], the IC50 in assay [1] is 36.8 µM; in assay [2], 10.8 µM.
With `CCN1CC(CC(=O)NO)S(=O)(=O)c2ccc(C(=O)NCc3cccc(F)c3)cc21` (stereo not drawn) [Example 13, 4-Ethyl-2-hydroxycarbamoylmethyl-1,1-dioxo-1,2,3,4-tetrahydro-1λ^6-benzo[1,4]thiazine-6-carboxylic acid 3-fluoro-benzylamide], the IC50 in assay [1] turned out to be 13.7 µM; in assay [2], 11.7 µM.
For `CCN1CC(CC(=O)NO)S(=O)(=O)c2ccc(C(=O)NCc3ccc(F)cc3)cc21` (stereo not drawn) [Example 14, 4-Ethyl-2-hydroxycarbamoylmethyl-1,1-dioxo-1,2,3,4-tetrahydro-1λ^6-benzo[1,4]thiazine-6-carboxylic acid 4-fluoro-benzylamide], the half-inhibitory concentration (IC50) in assay [1] was 10 µM; in assay [2] it was 10.5 µM.
For `CCN1CC(CC(=O)NO)S(=O)(=O)c2ccc(C(=O)NCc3ccccc3Br)cc21` (stereo not drawn) [Example 15, 4-Ethyl-2-hydroxycarbamoylmethyl-1,1-dioxo-1,2,3,4-tetrahydro-1λ^6-benzo[1,4]thiazine-6-carboxylic acid 2-bromo-benzylamide], the figures for the IC50 in assay [1] and in assay [2] were 9.6 µM and 20 µM, respectively.
Regarding `CCN1CC(CC(=O)NO)S(=O)(=O)c2ccc(C(=O)NCc3cccc(Br)c3)cc21` (stereo not drawn) [Example 16, 4-Ethyl-2-hydroxycarbamoylmethyl-1,1-dioxo-1,2,3,4-tetrahydro-1λ^6-benzo[1,4]thiazine-6-carboxylic acid 3-bromo-benzylamide], the IC50 in assay [1] turned out to be 9.7 µM; in assay [2], 2 µM.
As to `CCN1CC(CC(=O)NO)S(=O)(=O)c2ccc(C(=O)NCc3ccc(Br)cc3)cc21` (stereo not drawn) [Example 17, 4-Ethyl-2-hydroxycarbamoylmethyl-1,1-dioxo-1,2,3,4-tetrahydro-1λ^6-benzo[1,4]-thiazine-6-carboxylic acid 4-bromo-benzylamide], the IC50 in assay [1] was 3.4 µM; in assay [2], 1.5 µM.
As for `CCN1CC(CC(=O)NO)S(=O)(=O)c2ccc(C(=O)NCc3ccccc3[N+](=O)[O-])cc21` (stereo not drawn) [Example 18, 4-Ethyl-2-hydroxycarbamoylmethyl-1,1-dioxo-1,2,3,4-tetrahydro-1λ^6-benzo[1,4]thiazine-6-carboxylic acid 2-nitro-benzylamide], the results for the IC50 in assay [1] and in assay [2] were 11.3 µM and 17.6 µM, respectively.
Consider `CCN1CC(CC(=O)NO)S(=O)(=O)c2ccc(C(=O)NCc3cccc([N+](=O)[O-])c3)cc21` (stereo not drawn) [Example 19, 4-Ethyl-2-hydroxycarbamoylmethyl-1,1-dioxo-1,2,3,4-tetrahydro-1λ^6-benzo[1,4]thiazine-6-carboxylic acid 3-nitro-benzylamide], for which the half-inhibitory concentration (IC50) was 11.9 µM in assay [1] and 3.3 µM in assay [2].
Regarding `CCN1CC(CC(=O)NO)S(=O)(=O)c2ccc(C(=O)NCc3ccc([N+](=O)[O-])cc3)cc21` (stereo not drawn) [Example 20, 4-Ethyl-2-hydroxycarbamoylmethyl-1,1-dioxo-1,2,3,4-tetrahydro-1λ^6-benzo[1,4]thiazine-6-carboxylic acid 4-nitro-benzylamide], the values for the half-inhibitory concentration (IC50) in assay [1] and in assay [2] were 3.9 µM and 1.2 µM, respectively.
For the compound `CCN1CC(CC(=O)NO)S(=O)(=O)c2ccc(C(=O)NCc3ccccc3OC)cc21` (stereo not drawn) [Example 21, 4-Ethyl-2-hydroxycarbamoylmethyl-1,1-dioxo-1,2,3,4-tetrahydro-1λ^6-benzo[1,4]thiazine-6-carboxylic acid 2-methoxy-benzylamide], the IC50 in assay [1] and in assay [2] was 1.5 µM in each case.
Regarding `CCN1CC(CC(=O)NO)S(=O)(=O)c2ccc(C(=O)NCc3cccc(OC)c3)cc21` (stereo not drawn) [Example 22, 4-Ethyl-2-hydroxycarbamoylmethyl-1,1-dioxo-1,2,3,4-tetrahydro-1λ^6-benzo[1,4]thiazine-6-carboxylic acid 3-methoxy-benzylamide], the concentration for half-maximal inhibition (IC50) turned out to be 2.3 µM in assay [1] and 1 µM in assay [2].
`CCN1CC(CC(=O)NO)S(=O)(=O)c2ccc(C(=O)NCc3ccc(C(F)(F)F)cc3)cc21` (stereo not drawn) [Example 25, 4-Ethyl-2-hydroxycarbamoylmethyl-1,1-dioxo-1,2,3,4-tetrahydro-1λ^6-benzo[1,4]thiazine-6-carboxylic acid 4-trifluoromethyl-benzylamide]: the concentration for half-maximal inhibition (IC50) in assay [1] was determined as 4.2 µM.
